Patent US20260232817A1, “Activatable Drug Conjugates and Therapeutic Applications Thereof” (California Institute of Technology, priority 2023, published 2026)

Experiments:
IL-1B, IL-6 and IL-10 = assay: Serum cytokine ELISAs after MB PDT; type: in vivo, mice; conditions: MB PDT vs controls
Description: The formation and progression of AAA can be characterized by the degradation of the extracellular matrix (ECM) and the concurrent infiltration of immune cells into the aortic wall. To assess if MB PDT affects the extracellular matrix (ECM) of the aortic aneurysms, cross-sections of the aneurysms of the above mice which have undergone AAA induction and concurrently treated with MB PDT and the respective controls were stained with Verhoeff-Van Gieson (VVG) for elastin, Massons Trichrome for collagen and CD3 antibody for T-cells and CD68 antibody for macrophages for immune cell infiltration (FIG. 2A). […] Similarly, a compensatory effect of collagen expression into the elastin layer was observed (pointed by arrows) after PDT treatment compared to both vehicle-treated positive controls and sham controls. […] To assess if T-cells and macrophage infiltration is modulated in aneurysms upon treatment with MB PDT, the aneurysm cross-sections were stained for CD3 and CD68, markers for T-cells and macrophages, respectively. CD3 and CD68 staining were reduced after MB PDT treatment compared to vehicle treated controls (FIG. 2A). […] To assess if this benefit on elastin degradation and immune cell infiltration was due to any systemic decrease in circulating cytokine levels known to be associated with aneurysm growth, cytokines such as IL-1B, IL-6 and IL-10, serum cytokine levels were measured. […]

[1] = tested on: total elastin in porcine tissue; assay: CML modification levels of total elastin in porcine tissue; conditions: MB PDT vs untreated samples and pentagalloyl glucose; less than glutaraldehyde
[2] = Tissue rigidity assay, porcine aorta ex vivo
[3] = tested on: aortic aneurysm cross-sections; assay: Histology and IHC staining of aneurysm cross-sections after MB PDT at AAA induction; type: in vivo, mice
Description: The formation and progression of AAA can be characterized by the degradation of the extracellular matrix (ECM) and the concurrent infiltration of immune cells into the aortic wall. To assess if MB PDT affects the extracellular matrix (ECM) of the aortic aneurysms, cross-sections of the aneurysms of the above mice which have undergone AAA induction and concurrently treated with MB PDT and the respective controls were stained with Verhoeff-Van Gieson (VVG) for elastin, Massons Trichrome for collagen and CD3 antibody for T-cells and CD68 antibody for macrophages for immune cell infiltration (FIG. 2A). […] Similarly, a compensatory effect of collagen expression into the elastin layer was observed (pointed by arrows) after PDT treatment compared to both vehicle-treated positive controls and sham controls. […] To assess if T-cells and macrophage infiltration is modulated in aneurysms upon treatment with MB PDT, the aneurysm cross-sections were stained for CD3 and CD68, markers for T-cells and macrophages, respectively. CD3 and CD68 staining were reduced after MB PDT treatment compared to vehicle treated controls (FIG. 2A). […] To confirm if there is an improvement in elastin degradation, clinical scoring as per an established protocol was performed by blinded investigators. […] To assess if this benefit on elastin degradation and immune cell infiltration was due to any systemic decrease in circulating cytokine levels known to be associated with aneurysm growth, cytokines such as IL-1B, IL-6 and IL-10, serum cytokine levels were measured.
Fresh tissue was fixed in 10% neutral buffered formalin (Azer Scientific, PFNBF-90) for 24 hours before being transferred to 70% EtOH. […] After paraffin embedding, sections were cut at 5 um for staining (AML Laboratories). Sections were then stained with H&E (VWR 95057-844, 95057-848), Van Gieson (Statlab Medical Products, KTVELLT), and Masson's Trichrome (CP Lab Chemicals, TRM-500). For IHC, standard immunohistochemistry procedures for 5 μm-thick aorta sections were used. In brief, after deparaffinization, endogenous peroxidase activity was quenched by placing the slides into 3% hydrogen peroxide (H2O2) for 10 min. Sections were immersed in preheated 10 mM citric acid (VWR., Radnor, PA., USA), pH 6.0, for 30 min and cooled in cold water. Sections were then blocked in 5% goat serum (Vector Laboratories, Burlingame, Calif., USA) for 20 min before being incubated overnight at 4° C. in a solution of rabbit anti-CD3 (0.4 μg/ml; ab5690; Abcam, Cambridge, MA., USA) antibody, rabbit anti-CD31 (ERP1729; 0.4 μg/ml; ab182981; Abcam) antibody, rabbit alpha smooth muscle Actin (SMA; 0.067 μg/ml; ab5694; Abcam), rabbit anti-CD68 (ERP23917; 2.0 μg/ml; ab283667; Abcam), and rabbit anti-Interleukin-1 receptor type 1 (IL1R1; 2.0 μg/ml; PAS-98766; Thermo Fisher, Eugene, OR., USA) in PBS. The next day, the sections were exposed to the biotinylated biotinylated goat-anti-rabbit IgG secondary antibody (15 μg/ml; Vector Laboratories) in PBS for 1 h followed by avidin-biotin complex for 1 h (1:200, ABC; Vector Laboratories). The reactions were visualized with 3,3′-diaminobenzidine (Millipore-Sigma) for 10 min and counterstained with Gill's Haematoxylin (Thermo Scientific) for 30 seconds. Finally, the sections were dehydrated, cleared in xylene and cover slipped. […]
For quantification of elastin using Van Gieson, an elastin scoring guide was used. […]

[4] = Tissue rigidity assay (forceps test), healthy mouse aortic tissue ex vivo; parameters: species or system mice; conditions: MB PDT ex vivo
Protocol: (§1) (FIG. 7A). The stiffness maximized at 120 mins exposure for mouse tissue. […] To assess if this benefit of MB PDT on mechanical strength is true in a pathological setting, MB PDT treatment was done of on mouse aneurysms in vivo and the stiffness was assessed ex vivo (FIG. 7C).
(§2) Mouse aneurysms and aortic tissue were treated with MB PDT and vehicle in vivo and ex vivo.

[5] = Ex vivo elastase degradation assay with VVG staining; parameters: species or system pigs; conditions: MB PDT 20 min irradiance of 150 mW/cm^2, before recombinant elastase; vs Veh only
Protocol: Human and porcine aorta were thawed from −80 C to RT. Tissue was then cut into ~1 cm×1 cm squares and briefly rinsed with HBSS. Tissues were then split into two groups: control and PDT. Control tissues were kept in HBSS at RT for one hour, and treated tissues were subjected to 150 mW NIR light for 20 mins in 100 μg/ml methylene blue, with the lumen side facing the light. Then each group was further split into two groups, no elastase and elastase treatment. Treatment involved a 2 hour incubation at 37 C in 10% Porcine Pancreatic Elastase (E1250-25 MG). After treatment all tissues were briefly rinsed, dried on a paper towel, and frozen in OCT. Tissue was sectioned at 10 μm by cryotome for the cross-section and stained using Van Gieson (Statlab KTVELLT). Images were taken at 20× and 100× on a Keyence BZ-X700 Fluorescence Microscope.
To assess if MB PDT can protect aortic tissue from elastase-induce extracellular matrix degradation, aortic tissue were procured from pigs and subjected to MB PDT (20 min irradiance of 150 mW/cm^2) or Veh only treatment ex vivo before recombinant elastase treatment. Comparative analysis of the cross-sections of these tissues were sought to ascertain the consistency of PDT's protective effects across different biological species. […]

mouse aneurysms = assay: Tissue rigidity assay, mouse aneurysms treated in vivo, stiffness assessed ex vivo; conditions: post-MB PDT in vivo vs vehicle treatment controls
Protocol: as §1, §2

established AAAs = assay: MB PDT on pre-established and progressive aneurysms 21 days after induction surgery; type: in vivo, mice
Protocol: The photosensitizer dye methylene blue (M291-100) was used for photodynamic therapy treatment (MB-PDT). MB-PDT was applied at two time points during the experiment. To test the effect of MB-PDT on AAA formation, MB-PDT was done directly after the PPE saline wash (PODO). To investigate the effect of MB-PDT on AAA growth, Laparotomy and MB-PDT was performed 21 days postoperatively, covering the whole aneurysm (POD21). MB-PDT involves applying 10 ul of 10:1 MB Solution in DPBS (M291-100:21-030-CV) topically to the whole aneurysm, which was carefully dissected from surrounding tissue. Gauze was placed on either side of the aneurysm to absorb excess MB. The aneurysm was then irradiated for 25 min at an irradiance of 30 mW/cm^2 and fluence of 45 J/cm^2 (660 nm LED, Thor M660L4). Throughout the course of irradiation, 5 ul of MB was applied to the aneurysm every 2.5 min to prevent the tissue from drying out. After irradiation, the MB was washed with two changes of sterile saline. For the MB only group, the total amount of MB was applied topically to the aneurysm for five minutes and washed. For the light only group, the aneurysm was irradiated for 25 min, with 5 ul of sterile saline applied every 2.5 min to prevent tissue desiccation. For POD21 positive controls, a laparotomy was performed with no additional treatment.
Aneurysm size was tracked by weekly ultrasound surveillance.
In certain instances, AAA often goes undiagnosed or is diagnosed late, thus it is important to know if MB PDT can not only prevent AAA formation but also reduce or arrest progressive aneurysm growth. To evaluate the efficacy of MB PDT to inhibit the progression of AAA, MB PDT was administered to mice with pre-established and progressive aneurysms 21 days after the initial aneurysm induction surgery with elastase. […] Similar to the measurements done in the study of MB PDT upon AAA induction in FIG. 1, the maximum aortic diameters were measured using ultrasound, averaging anterior-posterior (AP) and transverse (TRV) dimensions for accuracy. […]

Recombinant Tropoelastin = biological target: T1, Recombinant Tropoelastin (Homo sapiens, UniProt P15502); assay: CML levels in recombinant tropoelastin treated with MB PDT; type: biochemical; conditions: MB PDT vs untreated tropoelastin and methylene blue without light
T1 sequence (P15502 27-786): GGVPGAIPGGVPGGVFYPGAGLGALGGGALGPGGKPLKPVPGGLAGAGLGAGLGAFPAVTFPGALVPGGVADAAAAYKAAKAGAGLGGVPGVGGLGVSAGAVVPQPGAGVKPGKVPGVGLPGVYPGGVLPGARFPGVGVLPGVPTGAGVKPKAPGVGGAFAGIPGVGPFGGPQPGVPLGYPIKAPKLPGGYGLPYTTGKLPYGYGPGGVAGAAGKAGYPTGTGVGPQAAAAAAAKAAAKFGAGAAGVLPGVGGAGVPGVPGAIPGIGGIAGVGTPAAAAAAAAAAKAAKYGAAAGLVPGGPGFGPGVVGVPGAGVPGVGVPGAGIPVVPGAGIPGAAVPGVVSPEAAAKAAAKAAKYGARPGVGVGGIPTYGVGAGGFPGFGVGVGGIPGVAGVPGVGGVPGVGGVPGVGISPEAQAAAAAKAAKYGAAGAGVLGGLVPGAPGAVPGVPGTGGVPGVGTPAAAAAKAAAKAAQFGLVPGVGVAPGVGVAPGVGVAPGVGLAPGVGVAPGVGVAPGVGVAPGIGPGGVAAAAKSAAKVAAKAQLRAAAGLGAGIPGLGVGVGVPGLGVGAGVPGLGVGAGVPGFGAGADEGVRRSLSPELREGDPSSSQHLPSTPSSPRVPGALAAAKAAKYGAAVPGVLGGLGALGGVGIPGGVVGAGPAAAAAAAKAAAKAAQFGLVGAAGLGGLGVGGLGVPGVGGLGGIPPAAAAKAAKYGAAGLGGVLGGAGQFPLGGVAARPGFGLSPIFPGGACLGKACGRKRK

[6] = after MB PDT vs vehicle treated controls

In the case of CN(C)c1ccc2nc3ccc(N(C)C)cc3[s+]c2c1 [MB, methylene blue], the “serum cytokine levels (IL-1B, IL-6, IL-10)” value (IL-1B, IL-6 and IL-10) is reported as “No significant differences”, the CML modification levels [1] is reported as “significant increase” and the “stiffness benefit in porcine aorta” value ([2]; MB PDT, exposure requirement higher, visually less striking) is reported as “consistent”. The “degradation on incubation with recombinant elastase” value ([2]; porcine aorta after MB PDT, more resistance at higher light intensity (60 mW versus 120 mW)) was “resistant to degradation”, the “elastin degradation, clinical scoring by blinded investigators” value ([3]; MB PDT treated group) was “trend towards improvement” and the “CD3 staining (T-cells)” value [3, 6] was “reduced”. The “CD68 staining (macrophages)” value [3, 6] was “reduced”, the “elastin degradation (VVG staining)” value [3, 6] was “reduction of elastin degradation” and the “collagen degradation in the adventitia (Massons Trichrome)” value ([3]; after PDT vs vehicle treated controls and sham mice) was “less collagen degradation”. For the same compound, the “light exposure at which stiffness maximized” value [4] was 120 min, the “vascular stiffness (forceps test)” value [4] was “increased with duration of light exposure” and the “resistance to elastase-induced ECM degradation (VVG elastin staining)” value [5] was “significant resistance”. The “stiffness of the aneurysm” value (mouse aneurysms) was “clear improvement”, the “aneurysm diameter on week 9” value (established AAAs; MB PDT on day 21, vs vehicle treated group) was “decrease” and the “enlargement of established AAAs (weekly ultrasound)” value (established AAAs; MB PDT on day 21 post-induction, vs vehicle-treated controls) was “significantly reduced”. For the same compound, the “morphological images and micrometric measurements of AAAs” value (established AAAs; treated vs vehicle) was “marked differences” and the CML levels (Recombinant Tropoelastin) was “significant increase”.
